For the test, the target named is T1, ERα protein (HiBiT-tagged) in ESR1_HiBiT KI MCF7 cells (Homo sapiens, UniProt P03372).
T1 sequence (P03372 1-595): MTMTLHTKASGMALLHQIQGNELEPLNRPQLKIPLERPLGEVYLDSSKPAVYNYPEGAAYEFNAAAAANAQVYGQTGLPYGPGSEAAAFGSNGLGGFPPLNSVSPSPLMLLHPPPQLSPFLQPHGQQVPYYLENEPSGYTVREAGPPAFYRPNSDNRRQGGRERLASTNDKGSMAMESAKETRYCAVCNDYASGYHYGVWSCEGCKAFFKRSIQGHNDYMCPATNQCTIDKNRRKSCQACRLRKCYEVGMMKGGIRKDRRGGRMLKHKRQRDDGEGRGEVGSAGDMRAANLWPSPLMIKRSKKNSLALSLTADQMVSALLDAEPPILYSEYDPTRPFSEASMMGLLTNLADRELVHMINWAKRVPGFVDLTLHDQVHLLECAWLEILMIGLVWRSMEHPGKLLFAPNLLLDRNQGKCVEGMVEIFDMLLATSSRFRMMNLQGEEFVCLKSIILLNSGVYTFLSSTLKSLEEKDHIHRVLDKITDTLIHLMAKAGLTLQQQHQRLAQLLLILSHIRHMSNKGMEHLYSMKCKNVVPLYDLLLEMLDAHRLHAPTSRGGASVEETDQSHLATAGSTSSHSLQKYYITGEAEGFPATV
Description: Nano Glo HiBiT Lytic Degradation Assay. The class given is cell-based. Conditions: 6 hours with compound, 14-point dose response 1:3, bell-shape curve fit, half-maximal effect of first Hill model, read-out: MCF7 ESR1 HiBiT - (DC50). An outline of the steps:
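ESR1_HiBiT knock-in MCF7 cells were seeded 24 h before treatment, then exposed to compounds for 6 h at 37° C (14-point 1:3 curves, 10 mM top stock, 0.1% DMSO final, duplicates). HiBiT-ERα was read by lytic LgBiT luminescence, background-subtracted and normalized to DMSO. DC50 was taken from the half-maximal point of the first Hill component of a bell-shaped fit.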
In the case of `O=C1CCN(c2ccc(N3CCC4(CCN(CC5CCN(c6ccc([C@@H]7c8ccc(O)cc8CO[C@@H]7c7ccccc7)cc6)CC5)C4)CC3)cc2)C(=O)N1` [Compound I-391, 1-(4-(2-((1-(4-((3S,4R)-7-hydroxy-3-phenylisochroman-4-yl)phenyl)piperidin-4-yl)methyl)-2,8-diazaspiro[4.5]decan-8-yl)phenyl)dihydropyrimidine-2,4 (1H,3H)-dione], the DC50 stood at 0.42 nM.

Consider `O=C1CC[C@H](N2Cc3cc(N4CCN(CC5CCN(c6ccc([C@@H]7c8ccc(O)cc8CO[C@@H]7CC7CC7)cc6)CC5)CC4)ccc3C2=O)C(=O)N1` (single isomer, unassigned) [Compound I-230], for which the DC50 turned out to be 1 nM.

Turning to `O=C1CC[C@H](N2Cc3cc(N4CCN(CC5CCN(c6ccc([C@@H]7c8ccc(C(F)(F)F)cc8CC[C@@H]7c7ccccc7)cc6)CC5)CC4)ccc3C2=O)C(=O)N1` [Compound I-46, (S)-3-(1-oxo-5-(4-((1-(4-((1R,2S)-2-phenyl-6-(trifluoromethyl)-1,2,3,4-tetrahydronaphthalen-1-yl)phenyl)piperidin-4-yl)methyl)piperazin-1-yl)isoindolin-2-yl)piperidine-2,6-dione], the DC50 is ≥ 10000 nM.

Take `O=C1CC[C@H](N2Cc3cc(N4CCN(CC5CCN(c6ccc([C@@H]7c8ccc(O)cc8CC[C@@H]7c7ccc8c(c7)CCCC8)cc6)CC5)CC4)ccc3C2=O)C(=O)N1` (single isomer, unassigned) [Compound I-59]: the DC50 is 906 nM.

Consider `C[C@]1(c2ccccc2)CCc2cc(O)ccc2[C@H]1c1ccc(N2CCC(CN3CCN(c4ccc5c(c4)CN([C@H]4CCC(=O)NC4=O)C5=O)CC3)CC2)cc1` [Compound I-147, (S)-3-(5-(4-((1-(4-((1S,2S)-6-hydroxy-2-methyl-2-phenyl-1,2,3,4-tetrahydronaphthalen-1-yl)phenyl)piperidin-4-yl)methyl)piperazin-1-yl)-1-oxoisoindolin-2-yl)piperidine-2,6-dione], for which the DC50 was 0.42 nM.

Consider `O=C1CC[C@H](N2Cc3cc(N4CCN(CC5CCN(c6ccc([C@@H]7c8ccc(B(O)O)cc8CC[C@@H]7c7ccccc7)cc6)CC5)CC4)ccc3C2=O)C(=O)N1` [Compound I-45, ((5R,6S)-5-(4-(4-((4-(2-((S)-2,6-dioxopiperidin-3-yl)-1-oxoisoindolin-5-yl)piperazin-1-yl)methyl)piperidin-1-yl)phenyl)-6-phenyl-5,6,7,8-tetrahydronaphthalen-2-yl)boronic acid], for which the DC50 worked out at 3 nM.

In the case of `C[C@@H]1OC2(CCCCC2)[C@H](c2ccc(N3CCC(CN4CCN(c5ccc6c(c5)CN([C@H]5CCC(=O)NC5=O)C6=O)CC4)CC3)cc2)c2ccc(O)cc21` [Compound I-83, (S)-3-(5-(4-((1-(4-((1′S,4′R)-7′-hydroxy-1′-methylspiro[cyclohexane-1,3′-isochroman]-4′-yl)phenyl)piperidin-4-yl)methyl)piperazin-1-yl)-1-oxoisoindolin-2-yl)piperidine-2,6-dione], the DC50 came to 1 nM.

Take `O=C1CC[C@H](N2Cc3cc(N4CCN(CC5CCN(c6ccc([C@@H]7c8ccc(O)cc8CC[C@@H]7c7ccc(F)cc7)cc6)CC5)CC4)ccc3C2=O)C(=O)N1` [II-94]: the DC50 worked out at 0.64 nM.

As for `CC(C1CCN(c2ccc([C@@H]3c4ccc(O)cc4CC[C@@H]3c3ccccc3)cc2)CC1)N1CCN(c2ccc3c(c2)CN([C@@H]2CCC(=O)NC2=O)C3=O)CC1` (single isomer, unassigned) [II-67], the DC50 stood at 47 nM.

As for `O=C1CC[C@H](N2Cc3cc(N4CCN(CC5CCN(c6cc(F)c([C@@H]7c8ccc(O)cc8CC[C@@H]7C7CCCCC7)c(F)c6)CC5)CC4)ccc3C2=O)C(=O)N1` [Compound I-119, (S)-3-(5-(4-((1-(4-((1S,2R)-2-cyclohexyl-6-hydroxy-1,2,3,4-tetrahydronaphthalen-1-yl)-3,5-difluorophenyl)piperidin-4-yl)methyl)piperazin-1-yl)-1-oxoisoindolin-2-yl)piperidine-2,6-dione], the DC50 was determined as 6 nM.

Turning to `C[C@@H]1O[C@H](C2CCCCC2)[C@H](c2ccc(N3CCC(CN4CCN(c5ccc6c(c5)CN([C@H]5CCC(=O)NC5=O)C6=O)CC4)CC3)cc2)c2ccc(O)cc21` (single isomer, unassigned) [Compound I-205, (S)-3-(5-(4-((1-(4-((1*S,3*R,4*R)-3-cyclohexyl-7-hydroxy-1-methylisochroman-4-yl)phenyl)piperidin-4-yl)methyl)piperazin-1-yl)-1-oxoisoindolin-2-yl)piperidine-2,6-dione], the DC50 was found to be 0.79 nM.

As for `O=C1CC[C@H](N2Cc3cc(N4CCN(CC5CCN(c6ccc([C@H]7c8ccc(O)cc8C(F)(F)C[C@H]7c7ccccc7)nc6)CC5)CC4)ccc3C2=O)C(=O)N1` [Compound I-337, (S)-3-(5-(4-((1-(6-((1R,2R)-4,4-difluoro-6-hydroxy-2-phenyl-1,2,3,4-tetrahydronaphthalen-1-yl)pyridin-3-yl)piperidin-4-yl)methyl)piperazin-1-yl)-1-oxoisoindolin-2-yl)piperidine-2,6-dione], the DC50 is ≥ 10000 nM.

Turning to `O=C1CC[C@H](N2Cc3cc(N4CC5(CCN(CC6CCN(c7ccc([C@H]8c9ccc(O)cc9CC[C@H]8c8ccccc8)cc7)CC6)CC5)C4)ccc3C2=O)C(=O)N1` (single isomer, unassigned) [II-96], the DC50 is ≥ 10000 nM.

Consider `Cc1ccc([C@H]2OCc3cc(O)ccc3[C@H]2c2ccc(N3CCC(CN4CCN(c5ccc6c(c5)CN([C@H]5CCC(=O)NC5=O)C6=O)CC4)CC3)cc2)cc1` [Compound I-354, (S)-3-(5-(4-((1-(4-((3S,4R)-7-hydroxy-3-(p-tolyl)isochroman-4-yl)phenyl)piperidin-4-yl)methyl)piperazin-1-yl)-1-oxoisoindolin-2-yl)piperidine-2,6-dione], for which the DC50 amounted to 0.3 nM.

Consider `O=C1CCC(N2Cc3cc(N4CCN(CC5CCN(c6ccc([C@H]7c8ccc(O)cc8CC[C@H]7c7cccc8c7CC8)cc6)CC5)CC4)ccc3C2=O)C(=O)N1` (single isomer, unassigned) [Compound I-101], for which the DC50 was 8 nM.

For `O=C1CC[C@H](N2Cc3cc(N4CCN(CC5CCN(c6ccc([C@H]7c8ccc(O)cc8C(F)(F)C[C@H]7c7cc(F)ccc7F)cc6)CC5)CC4)ccc3C2=O)C(=O)N1` [Compound I-317, (S)-3-(5-(4-((1-(4-((1S,2R)-2-(2,5-difluorophenyl)-4,4-difluoro-6-hydroxy-1,2,3,4-tetrahydronaphthalen-1-yl)phenyl)piperidin-4-yl)methyl)piperazin-1-yl)-1-oxoisoindolin-2-yl)piperidine-2,6-dione], the DC50 stood at 3 nM.

Regarding `C[C@H]1OC2(CCCCC2)[C@@H](c2ccc(N3CCC(CN4CCN(c5ccc6c(c5)CN([C@H]5CCC(=O)NC5=O)C6=O)CC4)CC3)cc2)c2ccc(O)cc21` [Compound I-268, (S)-3-(5-(4-((1-(4-((1′R,4′S)-7′-hydroxy-1′-methylspiro[cyclohexane-1,3′-isochroman]-4′-yl)phenyl)piperidin-4-yl)methyl)piperazin-1-yl)-1-oxoisoindolin-2-yl)piperidine-2,6-dione], the DC50 is ≥ 10000 nM.

`Cc1cc(N2CCC3(CCN(CC4CCN(c5ccc([C@@H]6c7ccc(O)cc7CC[C@@H]6c6ccccc6)cc5)CC4)C3)CC2)ccc1N1CCC(=O)NC1=O` [Compound I-293]: the DC50 worked out at 0.52 nM.

Take `O=C1CC[C@H](N2Cc3cc(N4CCN(CC5CCN(c6ccc([C@@H]7c8ccc(O)cc8CO[C@@H]7c7ccc(C(F)(F)F)cc7)cc6)CC5)CC4)ccc3C2=O)C(=O)N1` [Compound I-349]: the DC50 stood at 0.39 nM.

`O=C1CCC(N2Cc3cc(N4CC5(CN(CC6CCN(c7ccc([C@@H]8c9ccc(O)cc9CC[C@@H]8c8ccccc8)cc7)CC6)C5)C4)ccc3C2=O)C(=O)N1` (single isomer, unassigned) [II-39]: the DC50 is ≥ 10000 nM.

Consider `O=C1CCC(c2ccc3c(c2)CN(C2CCN(CC4CCN(c5ccc([C@H]6c7ccc(O)cc7CC[C@H]6c6ccccc6)cc5)CC4)CC2)CC3)C(=O)N1` (stereo in doubt) [Compound I-185, 3-(2-(1-((1-(4-((1S,2R)-6-hydroxy-2-phenyl-1,2,3,4-tetrahydronaphthalen-1-yl)phenyl)piperidin-4-yl)methyl)piperidin-4-yl)-1,2,3,4-tetrahydroisoquinolin-7-yl)piperidine-2,6-dione], for which the DC50 came to 737 nM.

Regarding `O=C1CCC(N2Cc3cc([C@@H]4CCN(CC5CCN(c6ccc([C@@H]7c8ccc(O)cc8CC[C@@H]7c7ccccc7)cc6)CC5)C[C@H]4O)ccc3C2=O)C(=O)N1` (single isomer, unassigned) [II-106], the DC50 was 2.82 nM.

Take `Cn1nc([C@@H]2CCC(=O)NC2=O)c2ccc(N3CCN(CC4CCN(c5ccc([C@@H]6c7ccc(O)cc7CO[C@@H]6c6ccccc6)cc5)CC4)CC3)cc21` (single isomer, unassigned) [Compound I-395]: the DC50 came to 0.28 nM.

Consider `CC[C@H]1CCc2cc(O)ccc2[C@H]1c1ccc(N2CCC(CN3CCN(c4ccc5c(c4)CN([C@H]4CCC(=O)NC4=O)C5=O)CC3)CC2)cc1` (single isomer, unassigned) [Compound I-111], for which the DC50 amounted to 332 nM.

The record behind these values is patent US20250388565A1, “ESTROGEN RECEPTOR ALPHA DEGRADERS AND METHODS OF USE THEREOF” (Relay Therapeutics, Inc., priority 2022, published 2025).
